Reference: patent US8796328B2, “TRPV1 antagonists” (AbbVie Inc., priority 2012, dated 2014)

Assays:
[1] = biological target: T1, human TRPV1 receptor (hTRPV1) (Homo sapiens (Human), UniProt Q8NER1); assay: Acid activation assay (pH 5.0, FLIPR intracellular Ca2+); assay type: cell-based; settings: 37.5 μM compound, percentage of the maximal pH 5.0-induced response remaining; for remaining activity at 37.5 µM: read-out: hTRPV1 H+ (max % remain)
Description: Dulbecco's modified Eagle's medium (DMEM) with 4.5 mg/mL D-glucose, fetal bovine serum, L-glutamine, and 2-morpholinoethanesulfonic acid (MES) were purchased from Sigma-Aldrich Co. (St. Louis, Mo.). Dulbecco's phosphate-buffered saline (DPBS) with Ca^2+, Mg^2+, and 1 mg/mL D-glucose (pH 7.4), Geneticin®, 0.25% trypsin-1 mM EDTA, and penicillin-streptomycin were purchased from Invitrogen Corp. (Carlsbad, Calif.). The FLIPR® Calcium 4 assay kit was purchased from Molecular Devices (Sunnyvale, Calif.).
(§1) The cDNAs for the human TRPV1 receptor (hTRPV1) were isolated by reverse transcriptase-polymerase chain reaction (RT-PCR) from human small intestine poly A+ RNA supplied by Clontech (Palo Alto, Calif.) using primers designed surrounding the initiation and termination codons identical to the published sequences (Hayes et al. Pain 2000, 88, 205-215). The resulting cDNA PCR products were subcloned into pCIneo mammalian expression vector (Promega) and fully sequenced using fluorescent dye-terminator reagents (Prism, Perkin-Elmer Applied Biosystems Division) and a Perkin-Elmer Applied Biosystems Model 373 DNA sequencer or Model 310 genetic analyzer. Expression plasmids encoding the hTRPV1 cDNA were transfected individually into 1321N1 human astrocytoma cells using Lipofectamine®. Forty-eight hours after transfection, the neomycin-resistant cells were selected with growth medium containing 800 μg/mL Geneticin (Gibco BRL). Surviving individual colonies were isolated and screened for TRPV1 receptor activity. Cells expressing recombinant homomeric TRPV1 receptors were maintained at 37° C. in DMEM containing 4 mM L-glutamine, 300 μg/mL G418 (Cal-biochem) and 10% fetal bovine serum under a humidified 5% CO2 atmosphere.
The functional activity of compounds at the TRPV1 receptor was determined by measurement of intracellular Ca^2+ levels ([Ca^2+]i) using the Fluorescence Imaging Plate Reader (FLIPR)^TETRA®. All compounds were tested over a 12-point one-half-log concentration range. Compound stocks, 10 mM, were prepared in DMSO, and diluted serially across a 384-well plate using a Bravo BenchCel workstation (Agilent Technologies, Santa Clara, Calif.).
On the day of the experiment growth medium was removed, and the no-wash FLIPR®Calcium-4 dye (λEX=470-495 nm, λEM=515-575 nm) was added to each well using the Multidrop® dispenser. Cells were incubated for 90-120 minutes in the dark at 25° C. Test compounds were dissolved in DMSO, and plates were prepared using an Agilent Bravo workstation (Agilent Technologies Inc., Santa Clara, Calif.). Compounds were added to the cells 3 minutes prior to the addition of a pH 5.0 solution. Reagents were delivered at a rate of 40 μL/sec, and the final assay volume was 80 μL. Acidic pH solutions were prepared by titration of DPBS/MES with 1 N HCl. The intensity of the fluorescence was captured and digitally transferred to an interfaced PC.

[2] = biological target: T1, human TRPV1 receptor (hTRPV1); assay: Capsaicin activation assay (FLIPR intracellular Ca2+); assay type: cell-based; settings: inhibition of capsaicin-induced intracellular Ca2+ increase; compounds added 3 minutes prior to capsaicin; read-out: hTRPV1 cap. IC50
Description: Dulbecco's modified Eagle medium (D-MEM) (with 4.5 mg/mL glucose) and fetal bovine serum were obtained from Hyclone Laboratories, Inc. (Logan, Utah). Dulbecco's phosphate-buffered saline (D-PBS) (with 1 mg/mL glucose and 3.6 mg/l Na pyruvate, without phenol red), L-glutamine, hygromycin B, and Lipofectamine® were obtained from Life Technologies (Grand Island, N.Y.). G418 sulfate was obtained from Calbiochem-Novabiochem Corp. (San Diego, Calif.). Capsaicin (8-methyl-N-vanillyl-6-nonenamide) was obtained from Sigma-Aldrich, Co. (St. Louis, Mo.). Fluo-4 AM (N-[4-[6-[(acetyloxy)methoxy]-2,7-difluoro-3-oxo-3H-xanthen-9-yl]-2-[2-[2-[bis[2-[(acetyloxy)methoxy]-2-oxyethyl]amino]-5-methylphenoxy]ethoxy]phenyl]-N-[2-[(acetyloxy)methoxy]-2-oxyethyl]-glycine, (acetyloxy)methyl ester) was purchased from Molecular Probes (Eugene, Oreg.).
as §1, with “D-MEM” for “DMEM”
The functional activity of compounds at the TRPV1 receptor was determined by measurement of intracellular Ca^2+ levels ([Ca^2]i) using the Fluorescence Imaging Plate Reader (FLIPR)^TETRA®. All compounds were tested over a 12-point one-third-log concentration range. Compound stocks, 10 mM, were prepared in DMSO, and diluted serially across a 384-well plate using a Bravo BenchCel workstation (Agilent Technologies, Santa Clara, Calif.). A stock concentration of capsaicin (10 mM) was made in DMSO, and diluted in D-PBS to a final concentration of 200 nM (4×). On the day prior to the experiment, recombinant HEK293 cells that stably express either human or rat TRPV1 (hTRPV1-3) were removed from tissue culture flasks and plated in growth medium into black-walled clear-bottom 384-well Biocoat™ poly-D-lysine assay plates (BD Biosciences, Bedford, Mass.) using a Multidrop® dispenser (ThermoScientific, Waltham, Mass.). On the day of the experiment, growth medium was removed, and the no-wash FLIPR® Calcium-4 dye (λEX=470-495 nm, λEM=515-575 nm; Molecular Devices, Sunnyvale, Calif.) was added to each well using the Multidrop® dispenser. Cells were incubated for 90-120 minutes in the dark at room temperature. Test compounds were added to the cells 3 minutes prior to the addition of 200 nM capsaicin (4×), and the final assay volume was 80 μL. Fluorescence readings were made at 1 to 5 second intervals over the course of the experimental run. The peak increase in relative fluorescence units (minus baseline) was calculated, and expressed as a percentage of the 50 nM capsaicin (control) response. Curve-fits of the data were solved using a four-parameter logistic Hill equation in GraphPad Prism® (GraphPad Software, Inc., San Diego, Calif.), and IC50 values (concentration of the test compounds that inhibits 50% of the intracellular Ca^2+ concentration increase induced by capasin) were calculated.

rats = assay: Rat tail immersion assay (noxious thermosensation, 55° C. water bath); assay type: in vivo; settings: rat, morphine 6 mg/kg i.p. in saline, relative to vehicle
Description: Compounds were tested for their effects on noxious thermosensation using the tail immersion assay. Testing was performed one hour following oral administration of 100 μmol/kg of the compound in 10% ethanol/20% Tween-80/70% PEG-400 (2 mL/kg). Mophine (6 mg/kg) was administered interperitoneally (i.p.) using saline (2 mL/kg) as the vehicle. For testing, a circulating water bath was heated to 55° C. Thirty to sixty minutes post dosing, the rats were handled for a few seconds to calm them down and then cupped with their back against the testers hand at a slight angle with head facing away from tester. With rat in one hand and a 0.01 second stopwatch in the other hand, the tail was quickly immersed 6-8 cm in water bath or to a distance leaving 2-3 cm of tail out of water. The timer was started simultaneously. When the rat flinched or attempted withdrawal, timer was immediately stopped and the rat's tail was quickly removed from water bath. This response latency (in seconds) was recorded. Process was repeated 3 times with 3-4 minutes between readings for a final average.
For a given example, a percent increase in the average response latency (in seconds) for tail withdrawal relative to a vehicle control was determined % increase=[(tc−tv)/tv]×100%
tc=response time (in seconds) with oral dosing of compounds
tv=response time (in seconds) with oral dosing of vehicle
The % increases in tail withdrawal latency relative to vehicle control are divided into the following categories: […]

T1 sequence (Q8NER1 whole entry): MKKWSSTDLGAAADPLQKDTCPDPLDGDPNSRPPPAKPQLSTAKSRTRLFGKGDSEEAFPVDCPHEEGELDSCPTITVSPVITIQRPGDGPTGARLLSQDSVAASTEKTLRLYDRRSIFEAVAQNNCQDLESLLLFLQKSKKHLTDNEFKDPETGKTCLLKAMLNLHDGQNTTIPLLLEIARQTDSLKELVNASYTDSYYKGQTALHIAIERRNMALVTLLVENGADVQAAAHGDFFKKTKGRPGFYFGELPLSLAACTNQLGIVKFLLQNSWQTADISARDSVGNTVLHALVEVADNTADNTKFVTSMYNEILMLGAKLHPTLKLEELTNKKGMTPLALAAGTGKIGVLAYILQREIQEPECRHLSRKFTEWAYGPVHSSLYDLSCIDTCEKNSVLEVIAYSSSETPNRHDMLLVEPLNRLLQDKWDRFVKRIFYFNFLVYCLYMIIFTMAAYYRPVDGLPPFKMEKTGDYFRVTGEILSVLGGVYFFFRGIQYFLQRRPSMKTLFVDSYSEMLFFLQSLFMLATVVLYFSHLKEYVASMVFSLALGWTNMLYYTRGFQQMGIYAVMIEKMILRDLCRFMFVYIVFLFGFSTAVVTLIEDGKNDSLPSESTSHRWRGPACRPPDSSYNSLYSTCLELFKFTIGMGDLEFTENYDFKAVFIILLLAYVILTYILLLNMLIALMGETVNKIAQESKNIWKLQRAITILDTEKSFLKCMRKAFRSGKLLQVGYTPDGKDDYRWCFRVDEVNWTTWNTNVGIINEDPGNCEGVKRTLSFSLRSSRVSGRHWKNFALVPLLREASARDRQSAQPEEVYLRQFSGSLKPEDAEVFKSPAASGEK

Row | SMILES | hTRPV1 H+ (max % remain) [1] [%] | IC50 [2] [nM] | remaining activity at 37.5 µM [1] [%] | % Increase in Tail Withdrawal Latency (rats)
1 | CC1(C)C[C@H](NC(=O)NCc2ccc(NS(C)(=O)=O)c(F)c2)c2cc(F)ccc2O1 [Example 34, N-{2-fluoro-4-[({[(45)-6-fluoro-2,2-dimethyl-3,4-dihydro-2H-chromen-4-yl]carbamoyl}amino)methyl]phenyl}methanesulfonamide] | 86 | 28700 | – | –
2 | C[C@@]1(C(F)(F)F)C[C@@H](NC(=O)NCc2ccc(NS(C)(=O)=O)c(F)c2)c2ccccc2O1 [Example 35, N-{2-fluoro-4-[({[(2S,4R)-2-methyl-2-(trifluoromethyl)-3,4-dihydro-2H-chromen-4-yl]carbamoyl}amino)methyl]phenyl}methanesulfonamide] | – | 2440 | 25 | –
3 | C[C@]1(C(F)(F)F)C[C@@H](NC(=O)NCc2ccc(NS(C)(=O)=O)c(F)c2)c2ccccc2O1 [Example 36, N-{2-fluoro-4-[({[(2R,4R)-2-methyl-2-(trifluoromethyl)-3,4-dihydro-2H-chromen-4-yl]carbamoyl}amino)methyl]phenyl}methanesulfonamide] | – | 587 | 58 | –
4 | C[C@@]1(CF)C[C@@H](NC(=O)NCc2ccc(NS(C)(=O)=O)c(F)c2)c2ccc(C(F)(F)F)cc2O1 [Example 37, N-{2-fluoro-4-[({[(2S,4R)-2-(fluoromethyl)-2-methyl-7-(trifluoromethyl)-3,4-dihydro-2H-chromen-4-yl]carbamoyl}amino)methyl]phenyl}methanesulfonamide] | – | 256 | 64 | –
5 | C[C@]1(CF)C[C@@H](NC(=O)NCc2ccc(NS(C)(=O)=O)c(F)c2)c2ccc(C(F)(F)F)cc2O1 [Example 38, N-{2-fluoro-4-[({[(2R,4R)-2-(fluoromethyl)-2-methyl-7-(trifluoromethyl)-3,4-dihydro-2H-chromen-4-yl]carbamoyl}amino)methyl]phenyl}methanesulfonamide] | – | 345 | 63 | –
6 | C[C@@]1(CF)C[C@@H](NC(=O)NCc2ccc(NS(C)(=O)=O)c(F)c2)c2ccc(Cl)cc2O1 [Example 39, N-{4-[({[(2S,4R)-7-chloro-2-(fluoromethyl)-2-methyl-3,4-dihydro-2H-chromen-4-yl]carbamoyl}amino)methyl]-2-fluorophenyl}methanesulfonamide] | – | 615 | 41 | –
7 | C[C@@]1(C(F)F)C[C@@H](NC(=O)NCc2ccc(NS(C)(=O)=O)c(F)c2)c2ccccc2O1 [Example 40, N-{4-[({[(2S,4R)-2-(difluoromethyl)-2-methyl-3,4-dihydro-2H-chromen-4-yl]carbamoyl}amino)methyl]-2-fluorophenyl}methanesulfonamide] | – | 10100 | 64 | –
8 | C[C@]1(C(F)F)C[C@@H](NC(=O)NCc2ccc(NS(C)(=O)=O)c(F)c2)c2ccccc2O1 [Example 41, N-{4-[({[(2R,4R)-2-(difluoromethyl)-2-methyl-3,4-dihydro-2H-chromen-4-yl]carbamoyl}amino)methyl]-2-fluorophenyl}methanesulfonamide] | – | 5280 | 71 | –
9 | CC1(C)C[C@@H](NC(=O)NCc2ccc(NS(C)(=O)=O)c(F)c2)c2ccc(C(F)(F)F)nc2O1 [Example 42, N-{4-[({[(4R)-2,2-dimethyl-7-(trifluoromethyl)-3,4-dihydro-2H-pyrano[2,3-b]pyridin-4-yl]carbamoyl}amino)methyl]-2-fluorophenyl}methanesulfonamide] | – | 32800 | 82 | –
10 | CS(=O)(=O)Nc1ccc(CNC(=O)N[C@@H]2CC(CF)(CF)Oc3cc(F)ccc32)cc1F [Example 43, N-{2-fluoro-4-[({[(4R)-7-fluoro-2,2-bis(fluoromethyl)-3,4-dihydro-2H-chromen-4-yl]carbamoyl}amino)methyl]phenyl}methanesulfonamide] | – | 6410 | 43 | –
11 | CS(=O)(=O)Nc1ccc(CNC(=O)NC2CC3(CCCC3)Oc3ccccc32)cc1F (centres unmarked) [Example 44, N-(4-{[(3,4-dihydrospiro[chromene-2,1′-cyclopentan]-4-ylcarbamoyl)amino]methyl}-2-fluorophenyl)methanesulfonamide] | – | 1280 | 42 | –
12 | CN1CC[C@]23c4c5ccc(O)c4O[C@H]2[C@@H](O)C=C[C@H]3[C@H]1C5 [Morphine] | – | – | – | +++ (greater than or equal to 25% increase)
